# Experimental data taken from ChEMBL document CHEMBL5726731, “Substituted benzenesulfonamides as sodium channel blockers” (2019).
# Test: Measurement of Sodium Ion Channel Blocking Effects: In order to measure the sodium ion channel blocking effect, an IonFlux16 Auto patch clamp system (Fluxion, Inc.) and a plate for exclusive use were used. The cells were distributed in an extracellular solution (4 mM KCl, 138 mM NaCl, 1 mM MgCl2, 1.8 mM CaCl2, 5.6 mM glucose, 10 mM HEPES, pH 7.45), and then dispensed in the specified region of the plate, and each of the prepared compound samples was diluted at various concentrations, and then dispensed in the specified region of the plate.
# Type: cell-based
row,Compound,IC50 [nM]
1,CN[C@H]1CCN(c2cc(C(F)(F)F)ccc2Nc2cc(F)c(S(=O)(=O)Nc3cscn3)cc2Cl)C1,23
2,O=S(=O)(Nc1cscn1)c1ccc(Nc2ccc(F)cc2N2CC[C@@H](F)C2)cc1,> 1000
3,CNC1CCN(c2cc(F)ccc2Nc2ccc(S(=O)(=O)Nc3cscn3)cc2Cl)C1 (stereo unspecified),1010
4,NC1CCN(c2cc(F)ccc2Nc2ccc(S(=O)(=O)Nc3cscn3)c(F)c2)C1 (stereo unspecified),> 1000
5,CNC1CCN(c2cc(C#N)ccc2Nc2cc(F)c(S(=O)(=O)Nc3cscn3)cc2Cl)C1 (stereo unspecified),32
6,CN[C@@H]1CCCN(c2cc(F)ccc2Nc2ccc(S(=O)(=O)Nc3cscn3)c(F)c2)C1,357
7,CN[C@@H]1CCN(c2cc(F)ccc2Nc2c(F)cc(S(=O)(=O)Nc3cscn3)cc2F)C1,> 1000
8,CN[C@@H]1CCCN(c2cc(OC)ccc2Nc2cc(F)c(S(=O)(=O)Nc3cscn3)cc2Cl)C1,73
9,CNC1CCN(c2cc(OC(F)(F)F)ccc2Nc2ccc(S(=O)(=O)Nc3cscn3)c(F)c2)C1 (stereo unspecified),108
10,CN[C@@H]1CCN(c2cc(F)ccc2Nc2ccc(S(=O)(=O)Nc3cscn3)cc2)C1,> 1000
11,CNC1CCN(c2c(F)cccc2Nc2ccc(S(=O)(=O)Nc3cscn3)c(F)c2)C1 (stereo unspecified),686
12,CN(C)CCN(C)c1cc(F)ccc1Nc1cc(F)c(S(=O)(=O)Nc2cscn2)cc1Cl,100
13,CN[C@@H]1CCCN(c2cc(F)ccc2Nc2ccc(S(=O)(=O)Nc3cscn3)cc2)C1,> 1000
14,CNC1CCN(c2cc(F)ccc2Nc2cc(F)c(S(=O)(=O)Nc3ccncn3)cc2Cl)C1 (stereo unspecified),250
15,CNCCN(C)c1cc(OC)ccc1Nc1cc(F)c(S(=O)(=O)Nc2cscn2)cc1Cl,140
16,CN(C)CCN(C)c1cc(F)ccc1Nc1cc(F)c(S(=O)(=O)Nc2ncc(Cl)s2)cc1Cl,60
17,CNCCN(C)c1cc(OC)ccc1Nc1cc(F)c(S(=O)(=O)Nc2ncc(Cl)s2)cc1Cl,6
18,CNCCN(C)c1ccccc1Nc1cc(F)c(S(=O)(=O)Nc2cc(C)[nH]n2)cc1Cl,> 10000
19,CN(C)[C@H]1CCN(c2cc(C(F)(F)F)ccc2Nc2cc(F)c(S(=O)(=O)Nc3cscn3)cc2Cl)C1,1170
20,CN[C@H]1CCN(c2cc(F)ccc2Nc2cc(F)c(S(=O)(=O)Nc3cscn3)cc2Cl)C1,50
21,CNCCN(C)c1cc(F)ccc1Nc1cc(F)c(S(=O)(=O)Nc2ncco2)cc1Cl,360
22,CN(C)[C@H]1CCN(c2cc(OC(F)F)ccc2Nc2cc(F)c(S(=O)(=O)Nc3cscn3)cc2Cl)C1,46
23,CN[C@@H]1CCCN(c2cc(OC)ccc2Nc2ccc(S(=O)(=O)Nc3cscn3)c(F)c2)C1,> 1000
24,CN[C@H]1CCN(c2cc(F)ccc2Nc2ccc(S(=O)(=O)Nc3cscn3)c(F)c2)C1,241
25,CNCCN(C)c1cc(F)ccc1Nc1cc(F)c(S(=O)(=O)Nc2cc(C)[nH]n2)cc1Cl,240
26,CNCCN(C)c1cc(Cl)ccc1Nc1cc(F)c(S(=O)(=O)Nc2nccs2)cc1Cl,20
27,CNCCN(C)c1ccccc1Nc1cc(F)c(S(=O)(=O)Nc2ccc(F)cn2)cc1Cl,70

row,Compound,IC50 [nM]
1,CN(C)[C@H]1CCN(c2cc(C(F)(F)F)ccc2Nc2ccc(S(=O)(=O)Nc3cscn3)cc2Cl)C1,103
2,CNCCN(C)c1cc(OC)ccc1Nc1cc(F)c(S(=O)(=O)Nc2ncc(F)cn2)cc1Cl,470
3,COC1CCN(c2cc(F)ccc2Nc2cc(F)c(S(=O)(=O)Nc3cscn3)cc2Cl)C1 (stereo unspecified),277
4,CNCCN(C)c1cc(Cl)ccc1Nc1cc(F)c(S(=O)(=O)Nc2ncc(F)cn2)cc1Cl,120
5,CNC1CCN(c2c(F)cccc2Nc2ccc(S(=O)(=O)Nc3cscn3)cc2Cl)C1 (stereo unspecified),375
6,CNCCN(C)c1cc(OC)ccc1Nc1cc(F)c(S(=O)(=O)Nc2ccc(F)cn2)cc1Cl,200
7,COc1ccc(Nc2cc(F)c(S(=O)(=O)Nc3cscn3)cc2Cl)c(N2CC[C@H](N(C)C)C2)c1,435
8,CNCCN(C)c1ccccc1Nc1cc(F)c(S(=O)(=O)Nc2cc(C(C)(C)C)on2)cc1Cl,> 10000
9,CN[C@@H]1CCCN(c2cc(OC)ccc2Nc2ccc(S(=O)(=O)Nc3cscn3)cc2)C1,> 1000
10,CN(C)CCN(C)c1ccccc1Nc1cc(F)c(S(=O)(=O)Nc2ncc(Cl)s2)cc1Cl,3670
11,CN1CCN(c2cc(F)ccc2Nc2ccc(S(=O)(=O)Nc3cscn3)cc2Cl)CC1,> 1000
12,COC1CCN(c2cc(C(F)(F)F)ccc2Nc2cc(F)c(S(=O)(=O)Nc3cscn3)cc2Cl)C1 (stereo unspecified),140
13,CNC1CCN(c2cc(F)ccc2Nc2cc(F)c(S(=O)(=O)Nc3ccn(C)n3)cc2Cl)C1 (stereo unspecified),390
14,CNCCN(C)c1cc(Cl)ccc1Nc1cc(F)c(S(=O)(=O)Nc2ccc(F)cn2)cc1Cl,80
15,CN[C@@H]1CCCN(c2cc(OC)ccc2Nc2c(F)cc(S(=O)(=O)Nc3cscn3)cc2F)C1,> 1000
16,CC(=O)N[C@@H]1CCN(c2cc(C(F)(F)F)ccc2Nc2cc(F)c(S(=O)(=O)Nc3cscn3)cc2Cl)C1,212
17,CN(C)[C@H]1CCN(c2cc(F)ccc2Nc2cc(F)c(S(=O)(=O)Nc3cscn3)cc2Cl)C1,> 10000
18,CNC1CCN(c2cc(C(F)(F)F)ccc2Nc2ccc(S(=O)(=O)Nc3cscn3)cc2Cl)C1 (stereo unspecified),27
19,O=S(=O)(Nc1cscn1)c1cc(F)c(Nc2ccc(F)cc2N2CC[C@@H](F)C2)c(F)c1,> 1000
20,CN(C)[C@@H]1CCN(c2cc(F)ccc2Nc2cc(F)c(S(=O)(=O)Nc3cscn3)cc2Cl)C1,100
21,CNCCN(C)c1cc(C(F)(F)F)ccc1Nc1cc(F)c(S(=O)(=O)Nc2ccc(F)cn2)cc1Cl,50
22,CNCCN(C)c1ccccc1Nc1cc(F)c(S(=O)(=O)Nc2cc(C)on2)cc1Cl,20
23,O=S(=O)(Nc1cscn1)c1cc(Cl)c(Nc2ccc(Cl)cc2N2CCC(N3CCCC3)C2)cc1F (stereo unspecified),125
24,CNCCN(C)c1cc(Cl)ccc1Nc1cc(F)c(S(=O)(=O)Nc2cscn2)cc1Cl,50
25,CN(C)CCN(C)c1cc(F)ccc1Nc1ccc(S(=O)(=O)Nc2cscn2)cc1Cl,350
26,CNCCN(C)c1cc(OC)ccc1Nc1cc(F)c(S(=O)(=O)Nc2nccs2)cc1Cl,20

# Other lines, results leading:
row,IC50 [nM],Compound
1,541,CN1CCN(c2cc(C(F)(F)F)ccc2Nc2cc(F)c(S(=O)(=O)Nc3cscn3)cc2Cl)CC1
2,1220,COC1CCN(c2cc(F)ccc2Nc2ccc(S(=O)(=O)Nc3cscn3)cc2Cl)C1 (stereo unspecified)
3,6580,CC(=O)N[C@@H]1CCN(c2cc(F)ccc2Nc2ccc(S(=O)(=O)Nc3cscn3)cc2Cl)C1
4,240,CN(C)CCN(C)c1cc(F)ccc1Nc1cc(F)c(S(=O)(=O)Nc2nccs2)cc1Cl
5,> 1000,O=S(=O)(Nc1cscn1)c1ccc(Nc2ccc(F)cc2N2CC[C@@H](F)C2)cc1F
6,53,CNC1CCN(c2cc(OC(F)(F)F)ccc2Nc2cc(F)c(S(=O)(=O)Nc3cscn3)cc2Cl)C1 (stereo unspecified)
7,4,CNCCN(C)c1ccccc1Nc1cc(F)c(S(=O)(=O)Nc2ncc(Cl)s2)cc1Cl
8,205,NC1CCN(c2cc(F)ccc2Nc2cc(F)c(S(=O)(=O)Nc3cscn3)cc2Cl)C1 (stereo unspecified)
9,21,CNC1CCN(c2cc(C(F)(F)F)ccc2Nc2cc(F)c(S(=O)(=O)Nc3cscn3)cc2Cl)C1 (stereo unspecified)
10,352,COC1CCN(c2cc(C(F)(F)F)ccc2Nc2ccc(S(=O)(=O)Nc3cscn3)cc2Cl)C1 (stereo unspecified)
11,> 1000,CNC1CCN(c2cc(Cl)cnc2Nc2cc(F)c(S(=O)(=O)Nc3cscn3)cc2Cl)C1 (stereo unspecified)
12,184,CNCCN(C)c1cc(OC)ccc1Nc1cc(F)c(S(=O)(=O)Nc2ncc(F)s2)cc1Cl
13,149,O=S(=O)(Nc1cscn1)c1cc(Cl)c(Nc2ccc(F)cc2N2CCCNCC2)cc1F
14,> 1000,CN1CCN(c2cc(F)ccc2Nc2cc(F)c(S(=O)(=O)Nc3cscn3)cc2Cl)CC1
15,236,O=S(=O)(Nc1cscn1)c1cc(Cl)c(Nc2ccc(F)cc2N2CC[C@@H](F)C2)cc1F
16,1400,CNC1CCN(c2cc(F)ccc2Nc2cc(F)c(S(=O)(=O)Nc3ncns3)cc2Cl)C1 (stereo unspecified)
17,44,CN[C@@H]1CCN(c2cc(F)ccc2Nc2cc(F)c(S(=O)(=O)Nc3cscn3)cc2Cl)C1
18,120,CNCCN(C)c1ccccc1Nc1cc(F)c(S(=O)(=O)Nc2ccccn2)cc1Cl
19,10,CNCCN(C)c1cc(C(F)(F)F)ccc1Nc1cc(F)c(S(=O)(=O)Nc2nccs2)cc1Cl

row,IC50 [nM],Compound
1,> 1000,CNC1CCN(c2cc(OC)ccc2Nc2ccc(S(=O)(=O)Nc3cscn3)cc2Cl)C1 (stereo unspecified)
2,> 300,CN[C@@H]1CCN(c2cc(F)ccc2Nc2ccc(S(=O)(=O)Nc3cscn3)c(F)c2)C1
3,190,CNCCN(C)c1cc(F)ccc1Nc1cc(F)c(S(=O)(=O)Nc2cc(C(C)(C)C)on2)cc1Cl
4,50,CNCCN(C)c1ccccc1Nc1cc(F)c(S(=O)(=O)Nc2nccs2)cc1Cl
5,447,CNC1CCN(c2cc(OC(F)(F)F)ccc2Nc2ccc(S(=O)(=O)Nc3cscn3)cc2)C1 (stereo unspecified)
6,120,CC(=O)N[C@@H]1CCN(c2cc(Cl)ccc2Nc2cc(F)c(S(=O)(=O)Nc3cscn3)cc2Cl)C1
7,27,CNCCN(C)c1ccccc1Nc1cc(F)c(S(=O)(=O)Nc2ncc(F)s2)cc1Cl
8,70,CNCCN(C)c1cc(C(F)(F)F)ccc1Nc1cc(F)c(S(=O)(=O)Nc2ccccn2)cc1Cl
9,412,CNC1CCN(c2cc(F)ccc2Nc2c(F)cc(S(=O)(=O)Nc3cscn3)cc2F)C1 (stereo unspecified)
10,460,CNCCN(C)c1cc(C#N)ccc1Nc1cc(F)c(S(=O)(=O)Nc2ccccn2)cc1Cl
11,> 1000,O=S(=O)(Nc1cscn1)c1ccc(Nc2ccc(F)cc2N2CC[C@@H](F)C2)c(Cl)c1
12,278,CN(C)[C@@H]1CCN(c2cc(C(F)(F)F)ccc2Nc2cc(F)c(S(=O)(=O)Nc3cscn3)cc2Cl)C1
13,20,CNCCN(C)c1cc(C#N)ccc1Nc1cc(F)c(S(=O)(=O)Nc2nccs2)cc1Cl
14,> 1000,CNC1CCN(c2cc(OC)ccc2Nc2ccc(S(=O)(=O)Nc3cscn3)c(F)c2)C1 (stereo unspecified)
15,44,CN[C@@H]1CCCN(c2cc(Cl)ccc2Nc2cc(F)c(S(=O)(=O)Nc3cscn3)cc2Cl)C1
16,> 1000,CNC1CCN(c2nc(Cl)ccc2Nc2cc(F)c(S(=O)(=O)Nc3cscn3)cc2Cl)C1 (stereo unspecified)
17,160,CN1CCN(c2cc(OC(F)F)ccc2Nc2cc(F)c(S(=O)(=O)Nc3cscn3)cc2Cl)CC1
18,369,CNC1CCN(c2cc(OC(F)(F)F)ccc2Nc2c(F)cc(S(=O)(=O)Nc3cscn3)cc2F)C1 (stereo unspecified)
19,216,CC(=O)N[C@@H]1CCN(c2cc(C(F)(F)F)ccc2Nc2ccc(S(=O)(=O)Nc3cscn3)cc2Cl)C1
